In brackets after ≈: the same amount, converted by molar mass. Like-named read-outs stand apart in the source and are kept apart here. Non-standard residues stand in square brackets, D forms with d. Residues, ends and D or L forms follow the SMILES beside them. *: point of attachment. Decanoyl = CCCCCCCCCC(=O)*
Key:
[1] = test system: S. aureus USA300 LAC; format: cell-based
How it was run: (§1)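 Broth microdilution after CLSI M07-A10, modified: 2-fold peptide dilutions plus log-phase bacteria diluted to 0.001 OD, incubated overnight at 37° C, absorbance read at 630 nm. Medium effects probed with varied pH, NaCl or human serum in TSB (control pH 7.4), with 10%, 50%, 100% TSB, and with MHB.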

[2] = test system: E. coli ATCC 25922; format: cell-based
How it was run: as §1

[3] = test system: human red blood cells (hRBCs); format: cell-based
How it was run: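 Saline-washed human erythrocytes at 2% (v/v) incubated with peptides at various concentrations, 37° C, 1 hour. Haemoglobin release read at 545 nm in supernatant after centrifugation; 1% Triton X-100 = 100% lysis, PBS = 0%. HC50 is the peptide concentration giving 50% lysis; CSI = HC50/MIC against MRSA.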

[4] = test system: trypsin, chymotrypsin, pancreas elastase, S. aureus V8 protease, and fungal proteinase K
Description: The peptide was incubated with various proteases in 10 mM PBS buffer (pH 7.4) at 37° C. for 24 hours. Aliquots (20 μL) of the reaction solutions were taken at 3 and 24 hours. The reaction was then stopped by mixing with 20 μL of 2×SDS loading buffer and boiling in a water bath for ˜10 minutes. For the SDS-PAGE analysis, 10 μL of each sample was loaded to the well of a 5% stacking/18% resolving tricine gel and run at a constant current of 35 mA. The gels were stained using Coomassie Brilliant Blue.

[5] = test system: Klebsiella pneumonia ATCC 13883; assay: Antibacterial broth microdilution MIC; format: cell-based
How it was run: (§2)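 Broth microdilution per CLSI M07-A10 with minor changes: 2-fold peptide dilutions plus log-phase bacteria (OD600 ~0.5) diluted to 0.001 OD, in TSB. Incubated overnight at 37 °C; growth read at 630 nm.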

[6] = test system: S. aureus USA400; format: cell-based
How it was run: as §2

[7] = test system: S. aureus Mu50; format: cell-based
How it was run: as §2

[8] = test system: S. aureus USA200; format: cell-based
How it was run: as §2

[9] = test system: S. aureus Newman; format: cell-based
How it was run: as §2

[10] = test system: MCP-1, IL-17A, IL-10, TNF-α; assay: Cytokine quantification in tissues surrounding catheters; format: in vivo, mice; conditions: day 3 after peptide treatment
Description: The catheter-associated tissue homogenates/plasma samples stored at −80° C. were thawed to room temperature for the cytokines quantification using the BioLegend® individual mouse cytokine kit. The protocol for sample preparation and analysis was per the manufacturer manual. The samples were in duplicates with appropriate standards. The data are represented as mean±SD. Plots were generated using GraphPad prism 7, where * indicates p<0.05, **p<0.01, ***p<0.001, and NS means no significance (nonparametric, unpaired, Mann-Whitney test).

Compound	MIC in the presence of 5 or 10% human serum ([1]; 5 or 10% human serum)	MIC (μM) SA ([1]; USA300)	Minimal inhibitory concentration (MIC), pH = 6.8 ([1]; USA300, pH 6.8)	MIC (μM) EC [2]	HC50 [3]	time to degradation by proteases ([4]; nearly all the cases, except for S. aureus V8 protease, 37° C., PBS pH 7.4)	MIC (μM) KP [5]	Minimal inhibitory concentration, USA400 [6]	Minimal inhibitory concentration, Mu50 [7]	Minimal inhibitory concentration, USA200 [8]	Minimal inhibitory concentration, Newman [9]	reduction of anti-MRSA activity ([1]; 10% serum, pH 7.4)	MIC values (Table 4, text summary) ([1]; USA300)	Minimal inhibitory concentration against E. coli, 100% TSB [2]	HC50 ([3]; red cells of human, 1 h)	stability to five proteases ([4]; trypsin, chymotrypsin, pancreas elastase, S. aureus V8 protease, fungal proteinase K, 3 and 24 hours)	level of IL-10 in surrounding tissues of catheters [10]	level of IL-17A in surrounding tissues of catheters [10]	level of MCP-1/CCL2 in surrounding tissues of catheters [10]	level of TNFα in surrounding tissues of catheters [10]
CCCCCCCCCC(=O)N[C@@H](CCCCN)C(=O)N[C@@H](CCCNC(=N)N)C(=O)N[C@H](C(=O)N[C@@H](Cc1c[nH]c2ccccc12)C(=O)N[C@@H](CCC(N)=O)C(=O)N[C@@H](CCCNC(=N)N)C(=O)N[C@H](C(=O)N[C@@H](CCCCN)C(N)=O)[C@@H](C)CC)[C@@H](C)CC [Peptide C10-KR8] (Decanoyl-KRIWQRIK-NH2)	> 25 µM	1.5 to 3.1 µM	3.1-6.2 μM	12.5 µM (≈ 16 µg/mL)	300 µM	≤ 3 h	50 µM (≈ 64 µg/mL)	3.1 µM (≈ 3.97 µg/mL)	3.1 µM (≈ 3.97 µg/mL)	3.1 µM (≈ 3.97 µg/mL)	3.1 µM (≈ 3.97 µg/mL)									
CCCCCCCCCC(=O)N[C@H](CCCCN)C(=O)N[C@H](CCCNC(=N)N)C(=O)N[C@@H](C(=O)N[C@H](Cc1c[nH]c2ccccc12)C(=O)N[C@H](CCC(N)=O)C(=O)N[C@H](CCCNC(=N)N)C(=O)N[C@@H](C(=O)N[C@H](CCCCN)C(N)=O)[C@H](C)CC)[C@H](C)CC [Peptide C10-KR8d] (Decanoyl-[dK][dR][dI][dW][dQ][dR][dI][dK]-NH2)		1.5 to 3.1 µM		12.5 µM (≈ 16 µg/mL)			25 µM (≈ 32 µg/mL)	1.6 µM (≈ 2.05 µg/mL)	3.1 µM (≈ 3.97 µg/mL)	1.6 µM (≈ 2.05 µg/mL)	1.6 µM (≈ 2.05 µg/mL)	2 fold	3.1 to 6.2 µM	6.2 µM (≈ 7.94 µg/mL)	300 µM	resistant to the five proteases	decrease	up-regulation	up-regulation	decrease
